“Also recorded” adds a separate entry of the source. Like-named read-outs stand apart in the source and are kept apart here.
What was measured:
[1] = Chemical stability in a cosmetic formulation, accelerated aging test (45° C., 3 months); details: for % of the Compound after 3 Months: 0.1% m/m in cosmetic formulation, oven at 45° C., HPLC; for Stability in the cosmetic formulation (in words): 45° C., ferulyl compound also in cold storage; for % of the Compound after 3 Months / Stability in the cosmetic formulation (in words): 3 months
Experimental: In an embodiment, the chemical stability of the modified molecules was evaluated in accelerated degradation tests. For this purpose, the test molecules were formulated in a cosmetic relevant formulation and its degradations were assessed for a period of 3 months.
In an embodiment, the cosmetic formulation may comprise water, jojoba seed oil, butylene glycol, squalane, sodium hyaluronate, cetearyl alcohol and a carbomer.
In an embodiment, test molecules were added to the cosmetic formulation at 0.1% m/m level, thoroughly homogenized to ensure uniform dispersion and stored in closed glass bottles in an oven at 45° C. for 3 months. In order to evaluate homogeneity and stability, 3 samples were collected from random positions immediately after preparation and at each time point evaluated. The quantification of the test molecules was performed by HPLC.
In an embodiment, the preparation of the mixtures for evaluation of the stability was performed according to the following experimental protocol. The mass of compound was weighed and dissolved in 2-(2-ethoxyethoxy)ethanol (also weighed) and added to a known mass of moisturizer product. The mixture was homogenized, and 3 samples were collected to confirm homogenous distribution and initial concentration of modified molecules. The mixtures were then stored in an oven at 45° C. for 3 months (Table IV).
In an embodiment, the stability of the test molecules in the cosmetic formulation was determined. The test mixtures were sampled in triplicate from random zones. The samples were prepared for analysis by solubilizing them in acetonitrile and the quantification of the modified and non-modified tocopherol and tocotrienol molecules was performed by HPLC. The % of the initial compounds is described in Table IV.

[2] = for Rank of the nicotinic acid level in the permeate solutions: within molecules without a linker / within molecules with a linker
Experimental: In an embodiment, the penetration into human skin and the conversion of the modified tocotrienols and modified α-tocotrienols with linkers molecules in the human skin were evaluated by permeation experiments using Franz diffusion cells. The conversion profile was evaluated and quantified by measuring nicotinic acid or nicotinyl alcohol in the permeate solutions.
In an embodiment, the skin permeation of the modified compounds was assessed. The permeation tests were performed with full thickness human skin. These samples were obtained at a local hospital, from healthy donors undergoing cosmetic surgery. The excised skin was stored in a PBS solution containing 10% antibiotic and maintained at 4° C., until further processing in the laboratory. When the skin sample was received, the underlying fat tissue was removed and discarded. The remaining skin (dermis and epidermis layers) was cut into pieces of approximately 1.5×1.5 cm. When the permeation experiments were executed with fresh skin, the samples were immediately used. Otherwise, the pre-cut skin samples were frozen at −80° C. and stored for further use. When reclaiming the frozen skin samples, the samples were removed from storage and thawed to room temperature for 1 hour before further manipulation.
The permeation experiments were performed in Franz diffusion cells. These diffusion cells are constituted by a donor compartment, where the formulation containing the permeate molecule is placed, and a receptor compartment containing the receptor fluid where the permeate molecule is collected and accumulated in time. The skin sample is placed between the donor and receptor compartments and is also equipped with a sampling access that allows for the collection of samples (a certain volume of the receptor fluid) without requiring the disassembly of the cell and therefore allows for the permeation experiment to continue (FIG. 3).
At the start of the experiment, the receptor compartment is filled with the receptor fluid, the skin sample is placed in place with care so as to not form air bubbles underneath. The donor receptor is positioned in place and clamped. The assembly is then placed in the thermostatic (37° C.) bath for 30 min to allow temperature equilibration. After the equilibration time, the level of the receptor fluid is adjusted as necessary. The receptor compartment is equipped with a magnetic mixer, ensuring the solution homogeneity during the course of the permeation experiment.
In an embodiment, the permeate solutions are monitored for the presence of nicotinic acid released from the modified tocopherol and tocotrienols molecules. The amount of nicotinic acid is quantified by HPLC using an ion pairing method. The concentration of nicotinic acid is calculated from a standard calibration curve of known nicotinic acid concentration solutions measured in the same conditions. The HPLC analysis is performed on a Knauer chromatograph consisting of 3 modules: Smartline manager 5000, Smartline pump 1000 and Smartline UV Detector 2600. The UV detector is fitted with a photodiode array (PDA) which allows for the continuous monitoring from 190-450 nm. The online chromatograms are monitored at 254 nm. The eluent comprises an ion-pairing eluent (50 mM of tetrabutylammonium hydroxide (TBAOH), pH corrected to 7.4 with hydrogenphosphate dibasic ([…])) containing 10% of acetonitrile at a flow of 1 mL/min and the column used is an Atlantis T3 4.6×250 mm (with guard column of same type 4.6×20 mm) at 30° C.
In an embodiment, the skin permeation experiments are performed with formulations of different concentrations of modified tocotrienol and tocopherol molecules. The modified molecules are dissolved at concentrations of 5% and 10% m/m in a mixture of equal volumes of 2-(2-ethoxyethoxy)ethanol and propylene glycol and 150 μl of these solutions are applied on the skin samples.

[3] = modified α-tocotrienols with linkers, donor solution 10% m/m, 24 hours
[4] = modified α-tocotrienols with linkers, donor solution 10% m/m, 48 hours
[5] = donor solution 5% m/m, 48 hours, human skin, Franz cell
[6] = donor solution 10% m/m, 48 hours, human skin, Franz cell

Cc1c(C)c2c(c(C)c1O)CC[C@@](C)(CCC[C@H](C)CCC[C@H](C)CCCC(C)C)O2 [α-tocopherol, reference compound]
% of the Compound after 3 Months [1]: 44%

Cc1c(C)c2c(c(C)c1OC(=O)c1cccnc1)CC[C@@](C)(CCC[C@H](C)CCC[C@H](C)CCCC(C)C)O2 [α-tocopheryl nicotinate, reference compound]
% of the Compound after 3 Months [1]: ≥95%

CC(C)=CCC/C(C)=C/CC/C(C)=C/CC[C@]1(C)CCc2c(C)c(O)c(C)c(C)c2O1 [α-tocotrienol, reference compound]
% of the Compound after 3 Months [1]: 53%

COc1cc(/C=C/C(=O)Oc2c(C)c(C)c3c(c2C)CCC(C)(CC/C=C(\C)CC/C=C(\C)CCC=C(C)C)O3)ccc1OC(=O)c1cccnc1 (stereo not drawn) [α-tocotrienyl ferulyl nicotinate]
Concentration of nicotinic acid in the permeate solution [2, 3]: 1190 ng/mL
Concentration of nicotinic acid in the permeate solution [2, 4]: 2960 ng/mL
% of the Compound after 3 Months [1]: 0%
Stability in the cosmetic formulation (in words) [1]: unstable even in cold storage conditions; also recorded: not stable

CC(C)=CCC/C(C)=C/CC/C(C)=C/CCC1(C)CCc2c(C)c(OC(=O)CNC(=O)c3cccnc3)c(C)c(C)c2O1 (stereo not drawn) [α-tocotrienyl glycinyl nicotinate]
Concentration of nicotinic acid in the permeate solution [2, 3]: 180 ng/mL
Concentration of nicotinic acid in the permeate solution [2, 4]: 380 ng/mL
% of the Compound after 3 Months [1]: ≥95%
Stability in the cosmetic formulation (in words) [1]: excellent stability

CC(C)=CCC/C(C)=C/CC/C(C)=C/CCC1(C)CCc2c(C)c(OC(=O)COC(=O)c3cccnc3)c(C)c(C)c2O1 (stereo not drawn) [α-tocotrienyl glycolyl nicotinate]
Rate of conversion into the parent molecules relative to the other modified tocotrienols ([2]; human skin): higher rate
Concentration of nicotinic acid in the permeate solution [2, 3]: 3020 ng/mL
Concentration of nicotinic acid in the permeate solution [2, 4]: 8180 ng/mL
Rank of the nicotinic acid level in the permeate solutions [2]: highest level
% of the Compound after 3 Months [1]: ≥95%
Stability in the cosmetic formulation (in words) [1]: excellent stability

CC(C)=CCC/C(C)=C/CC/C(C)=C/CCC1(C)CCc2c(C)c(OC(=O)c3cccnc3)c(C)c(C)c2O1 (stereo not drawn) [α-tocotrienyl nicotinate]
Concentration of nicotinic acid in the permeate solution ([2]; donor solution 5% m/m, 24 hours, human skin, Franz cell): 320 ng/mL
Concentration of nicotinic acid in the permeate solution ([2]; donor solution 5% m/m, 33 hours, human skin, Franz cell): 540 ng/mL
Concentration of nicotinic acid in the permeate solution [2, 5]: 890 ng/mL
Concentration of nicotinic acid in the permeate solution [2, 6]: 2830 ng/mL
Rate of conversion into the parent molecules relative to the other modified tocotrienols ([2]; human skin): higher rate
Release of nicotinic acid relative to α-tocopheryl nicotinate ([2]; human skin, Franz cell): faster
Release of nicotinic acid relative to γ-tocotrienyl nicotinate or δ-tocotrienyl nicotinate ([2]; human skin, Franz cell): three times faster
Rank of the nicotinic acid level in the permeate solutions [2]: highest level
% of the Compound after 3 Months [1]: ≥95%

CC(C)=CCCC(C)=CCCC(C)=CCCC1(C)CCc2c(C)c(OC(=O)CCC(=O)OCc3cccnc3)c(C)c(C)c2O1 (stereo not drawn) [α-tocotrienyl nicotinyl succinate]
Remaining fraction of the initial mass after 3 months of accelerated aging [1]: > 95%
% of the Compound after 3 Months [1]: ≥95%

CC(C)=CCC/C(C)=C/CC/C(C)=C/CC[C@]1(C)CCc2cc(O)c(C)c(C)c2O1 [γ-tocotrienol, reference compound]
% of the Compound after 3 Months [1]: 20%

CC(C)=CCC/C(C)=C/CC/C(C)=C/CCC1(C)CCc2cc(OC(=O)c3cccnc3)c(C)c(C)c2O1 (stereo not shown) [γ-tocotrienyl nicotinate]
Concentration of nicotinic acid in the permeate solution [2, 5]: 90 ng/mL
Concentration of nicotinic acid in the permeate solution [2, 6]: 700 ng/mL
% of the Compound after 3 Months [1]: ≥95%

CC(C)=CCC/C(C)=C/CC/C(C)=C/CC[C@]1(C)CCc2cc(O)cc(C)c2O1 [δ-tocotrienol, reference compound]
% of the Compound after 3 Months [1]: 57%

CC(C)=CCCC(C)=CCCC(C)=CCCC1(C)CCc2cc(OC(=O)c3cccnc3)cc(C)c2O1 (stereo not shown) [δ-tocotrienyl nicotinate]
% of the Compound after 3 Months [1]: ≥95%

— patent US11912691B2, “Tocotrienols derivates, methods and uses thereof” (GLOBAL SCIENTIFIC, priority 2020, dated 2024)
